Experiments:
[1] = Cytotoxicity against African green monkey Vero cells by MTS/PMS assay; type: cell-based; details: chlorocebus sabaeus
[2] = Selectivity index, ratio of CC50 for African green monkey Vero cells to EC50 for Chikungunya virus Indian Ocean strain 899 infected in African green monkey Vero cells; type: toxicity; details: read-out: Ratio CC50/EC50
Chikungunya virus [3] = assay: Antiviral activity against Chikungunya virus Indian Ocean strain 899 infected in African green monkey Vero cells assessed as inhibition of viral-induced cytopathic effect measured on day 5 post infection by MTS/PMS assay; type: functional, organism-based, Indian Ocean 899; details: for EC50 / EC90: Chikungunya virus, Indian Ocean 899, Vero, 120 h
Chikungunya virus [4] = assay: Antiviral activity against Chikungunya virus Indian Ocean strain 899 infected in African green monkey Vero cells assessed as inhibition of viral-induced cytopathic effect by measuring concentration required for maximum activity measured on day 5 post infection by MTS/PMS assay; type: functional, Indian Ocean 899

SMILES | CC50 [1] | selectivity ratio [2] | Imax (Chikungunya virus [3]) | EC50 (Chikungunya virus [3]) | EC90 (Chikungunya virus [3]) | Activity (Chikungunya virus [4])
C/C(=N\NC(=S)NCCc1ccccc1)c1ccc(C2CCCCC2)cc1 | 52.9 µM | 12.2 | 90% | 4.3 µM | 5.9 µM | 6 µM
Cc1ccc(/C=N/NC(=O)/C=C/c2ccc(C(C)C)cc2)cc1 | 25 µM | 1 | 50% | 25.9 µM | – | 20 µM
Cc1ccc(-c2cn(CCc3ccccc3)nn2)cc1 | 200 µM | 1.6 | 74% | 122 µM | – | 163 µM
Cc1ccc(/C=N/NC(=O)N/C=C/c2ccc(C(C)(C)C)cc2)cc1 | 192 µM | 0.8 | 50% | 246 µM | > 298 µM | 187 µM
Cc1ccc(/C=N/NC(=O)CC(=O)c2ccc(C(C)(C)C)cc2)cc1 | 84 µM | – | 13% | > 74 µM | > 74 µM | 74 µM
CCOc1ccc(-c2nnc(CCc3ccc(C(C)(C)C)cc3)o2)cc1OCC | 15.5 µM | 1.2 | 61% | 12.4 µM | – | 13.5 µM
CC(C)(C)c1ccc(/C=C/NC(=O)N/N=C/c2ccc(O)cc2)cc1 | 10.4 µM | 1.9 | 89% | 5.6 µM | 7.5 µM | 7.4 µM
CC(C)(C)c1ccc(C(=O)CC(=O)N/N=C/c2ccc(O)cc2)cc1 | 14.7 µM | 2.3 | 87% | 7.2 µM | 8 µM | 7.9 µM
C/C(=N\NC(=O)N/C=C/c1ccc(C(C)(C)C)cc1)c1ccc(C2CCCCC2)cc1 | 123 µM | 2.9 | 90% | 42.3 µM | 78.8 µM | 79 µM
CCOc1ccc(/C=N/NC(=O)/C=C/c2ccc(C(F)(F)F)cc2)cc1OCC | 84.1 µM | 1.7 | 75% | 48.9 µM | – | 69 µM
Cc1ccc(-c2[nH]c3ccccc3c2/C=N/NC(=S)NCCc2ccccc2)cc1 | 7.8 µM | 4.4 | 100% | 1.8 µM | 2.5 µM | 2.5 µM
CCOc1ccc(/C=N/NC(=O)CC(=O)c2ccc(C(C)(C)C)cc2)cc1OCC | 81 µM | – | 4% | > 244 µM | > 244 µM | 244 µM
Cc1ccc(/C=N/NC(=O)/C=C/c2ccc(C(F)(F)F)cc2)cc1 | 203 µM | 2.1 | 61% | 96.3 µM | > 150 µM | 99 µM
Cc1ccc(/C=N/NC(=O)/C=C/c2ccc(-c3ccccc3)cc2)cc1 | > 294 µM | > 1.3 | 78% | 230 µM | > 294 µM | 294 µM
CC(C)(C)c1ccc(CCc2nnc(-c3ccc(O)cc3)o2)cc1 | 191 µM | 1.8 | 69% | 108 µM | > 103 µM | 103 µM
Cc1ccc2[nH]c(NC(=O)/C=C/c3ccc(C(C)(C)C)cc3)nc2c1 | – | – | 47% | > 300 µM | > 300 µM | 300 µM
C/C(=N\NC(=O)c1nc2ccccc2[nH]1)c1ccc(C2CCCCC2)cc1 | 6.2 µM | 2.4 | 83% | 2.6 µM | – | 4.3 µM
CCOc1ccc(/C=N/NC(=O)N/C=C/c2ccc(C(C)(C)C)cc2)cc1OCC | – | – | 49% | > 100 µM | > 100 µM | 100 µM
Cc1ccc(NC(=O)N/C=C/c2ccccc2)cc1 | – | – | 21% | > 396 µM | > 396 µM | 396 µM
COc1ccc(/C=C/C(=O)N/N=C/c2ccc(C)cc2)cc1 | – | – | 13% | > 112 µM | > 112 µM | 112 µM
CCOc1ccc(/C=N/NC(=S)NCCc2ccccc2)cc1OCC | 109 µM | 18 | 90% | 5.9 µM | 9.8 µM | 9.3 µM
Cc1ccc(/C=N/NC(=S)NCCc2ccccc2)cc1 | – | – | 12% | > 336 µM | > 336 µM | 56 µM
Cc1ccc(/C=N/NC(=O)c2cc3ccccc3[nH]2)cc1 | – | – | 45% | > 361 µM | > 361 µM | 361 µM
O=C(N/N=C/c1ccc(O)cc1)c1cc2ccccc2[nH]1 | – | – | 51% | 348 µM | > 358 µM | 358 µM
O=C(N/N=C/c1ccc(O)cc1)c1cnc2ccccc2c1 | – | – | <1% | > 343 µM | > 343 µM | 343 µM
C/C(=N\NC(=O)/C=C/c1ccc(C(F)(F)F)cc1)c1ccc(C2CCCCC2)cc1 | – | – | 12% | > 241 µM | > 241 µM | 241 µM
Cc1ccc(-c2nnc(CCc3ccccc3)o2)cc1 | – | – | 2% | > 378 µM | > 378 µM | 1 µM
Oc1ccc(/C=N/NC(=S)NCCc2ccccc2)cc1 | 87.8 µM | 1.8 | 67% | 48.3 µM | – | 51 µM
